Measured values published in patent publication US6992079B2, “Substituted 11-phenyl-dibenzazepine compounds useful for the treatment or prevention of diseases characterized by abnormal cell proliferation” (President Fellows of Harvard College, priority 1997, dated 2006).

Experiments:
[1] = test system: NIH 3T3 mouse fibroblast cells; test: Mitogenic assay (mitogen-induced cell proliferation); format: cell-based; settings: Mus musculus, NIH3T3, 10 μM compound
[2] = test system: SU.86.86 pancreatic adenocarcinoma; test: Mouse xenograft tumor growth; format: in vivo, nude mice; settings: SU.86.86 pancreatic adenocarcinoma mouse xenograft
[3] = test system: H460 large cell lung carcinoma; test: Mouse xenograft tumor growth; format: in vivo, CD-1 nude mice
[4] = test system: A2058 metastatic melanoma; test: Mouse xenograft tumor growth; format: in vivo, CD-1 nude mice
Protocol: NCI-A2058 human melanoma cell line was grown as monolayer culture in Minimum essential medium (D-MEM) supplemented with 10% fetal bovine serum (FBS), 0.1 mM non-essential amino acid, 1.0 mM sodium pyruvate, 100U/ml penicillin, 100 μg/ml streptomycin and 0.25 μg/ml amphotericin B and L-alanyl-1-glutamine (2 mM) at 37° C. in an atmosphere of 5% CO2 in air. The tumor cells were routinely subcultured twice weekly by trypsin-EDTA treatment. The cells were harvested from subconfluent logarithmically growing culture by treatment with typsin-EDTA and counted for tumor inoculation.
An acclimation period of at least 7 days were allowed between animal receipt and commence of tumor inoculation. When the female CD-1 nude mice were more than 6-7 weeks of age (20-25 g), each mouse was subcutaneously injected with 5.0×10^6 NCI-A2058 human melanoma cells in 0.1 ml of PBS solution at the right flank of the mice to induce tumor growth.

[5] = test system: SR; test: In-Vitro Testing SRB panel: Leukemia; format: cell-based
[6] = test system: HCT-116; test: In-Vitro Testing SRB panel: Colon Cancer; format: cell-based; settings: HCT-116
[7] = test system: SK-MEL-2; test: In-Vitro Testing SRB panel: Melanoma; format: cell-based; settings: SK-MEL-2
[8] = test system: UACC-257; test: In-Vitro Testing SRB panel: Melanoma; format: cell-based; settings: UACC-257
[9] = test system: IGROV1; test: In-Vitro Testing SRB panel: Ovarian Cancer; format: cell-based
[10] = test system: OVCAR-4; test: In-Vitro Testing SRB panel: Ovarian Cancer; format: cell-based; settings: OVCAR-4
[11] = test system: ACHN; test: In-Vitro Testing SRB panel: Renal Cancer; format: cell-based
[12] = Homo sapiens, read-out: LC50 (the source's name)

With COc1cccc2c1C(c1ccccc1Cl)c1cc(Cl)ccc1N(C(=O)c1ccc([N+](=O)[O-])cc1)C2 (stereo not drawn) [Compound 31] the inhibition at 10 µM [1] was 99%, the tumor growth [2] was “showed inhibition of tumor growth” and the tumor growth [3] was “showed inhibition of tumor growth”. For the same compound, the tumor growth [4] was “showed inhibition of tumor growth”, the TGI [5] was greater than 1.00E−04 Molar and the GI50 ([5]; Homo sapiens) was 128 nM. The CC50 [5, 12] was greater than 100000 nM, the “Percent Growth” value ([5]; log10 conc -4 Molar) was 4% and the “Percent Growth” value ([5]; log10 conc -5 Molar) was 7%. For the same compound, the “Percent Growth” value ([5]; log10 conc -6 Molar) was 13%, the “Percent Growth” value ([5]; log10 conc -7 Molar) was 54% and the “Percent Growth” value ([5]; log10 conc -8 Molar) was 94%. The TGI [6] was 1.00E−04 Molar, the “Percent Growth” value ([6]; log10 conc -4 Molar) was 12% and the “Percent Growth” value ([6]; log10 conc -5 Molar) was 17%. For the same compound, the “Percent Growth” value ([6]; log10 conc -6 Molar) was 32%, the “Percent Growth” value ([6]; log10 conc -7 Molar) was 92% and the “Percent Growth” value ([6]; log10 conc -8 Molar) was 100%. For the same compound, the GI50 ([6]; Homo sapiens) was 502 nM, the CC50 [6, 12] was greater than 100000 nM and the GI50 ([7]; Homo sapiens) was 79300 nM. For the same compound, the CC50 [7, 12] was greater than 100000 nM, the TGI [7] was greater than 1.00E−04 Molar and the “Percent Growth” value ([7]; log10 conc -4 Molar) was 47%. For the same compound, the “Percent Growth” value ([7]; log10 conc -5 Molar) was 78%, the “Percent Growth” value ([7]; log10 conc -6 Molar) was 102% and the “Percent Growth” value ([7]; log10 conc -7 Molar) was 99%. The “Percent Growth” value ([7]; log10 conc -8 Molar) was 101%, the GI50 ([8]; Homo sapiens) was 940 nM and the CC50 [8, 12] was greater than 100000 nM. For the same compound, the TGI [8] was greater than 1.00E−04 Molar, the “Percent Growth” value ([8]; log10 conc -4 Molar) was 7% and the “Percent Growth” value ([8]; log10 conc -5 Molar) was 27%. The “Percent Growth” value ([8]; log10 conc -6 Molar) was 49%, the “Percent Growth” value ([8]; log10 conc -7 Molar) was 91% and the “Percent Growth” value ([8]; log10 conc -8 Molar) was 98%. It also gave a GI50 ([9]; Homo sapiens, IGROV-1) of 2130 nM, a CC50 ([9]; Homo sapiens, IGROV-1, IGROV1, read-out: LC50 (the source's name)) greater than 100000 nM and a TGI ([9]; IGROV1) greater than 1.00E−04 Molar. The “Percent Growth” value ([9]; IGROV1, log10 conc -4 Molar) was 29%, the “Percent Growth” value ([9]; IGROV1, log10 conc -5 Molar) was 35% and the “Percent Growth” value ([9]; IGROV1, log10 conc -6 Molar) was 57%. For the same compound, the “Percent Growth” value ([9]; IGROV1, log10 conc -7 Molar) was 80%, the “Percent Growth” value ([9]; IGROV1, log10 conc -8 Molar) was 94% and the GI50 ([10]; Homo sapiens) was 1830 nM. For the same compound, the CC50 [10, 12] was greater than 100000 nM, the TGI [10] was 8.34E−05 Molar and the “Percent Growth” value ([10]; log10 conc -4 Molar) was −1%. For the same compound, the “Percent Growth” value ([10]; log10 conc -5 Molar) was 16%, the “Percent Growth” value ([10]; log10 conc -6 Molar) was 62% and the “Percent Growth” value ([10]; log10 conc -7 Molar) was 83%. For the same compound, the “Percent Growth” value ([10]; log10 conc -8 Molar) was 91%, the TGI [11] was greater than 1.00E−04 Molar and the GI50 ([11]; Homo sapiens) was 803 nM. The CC50 [11, 12] was greater than 100000 nM, the “Percent Growth” value ([11]; log10 conc -4 Molar) was 8% and the “Percent Growth” value ([11]; log10 conc -5 Molar) was 26%. For the same compound, the “Percent Growth” value ([11]; log10 conc -6 Molar) was 45%, the “Percent Growth” value ([11]; log10 conc -7 Molar) was 95% and the “Percent Growth” value ([11]; log10 conc -8 Molar) was 92%.
